{
  "source": "patent US9302007B2",
  "about": "“Low surfactant iodine topical disinfectant” (DELAVAL HOLDING AB, priority 2011, dated 2016)",
  "origin": "cited, not measured here",
  "details": "room temperature",
  "data": [
    {"smiles": "II", "values": [
      {"measurement": "solubility of iodine in water", "value": "about 300 ppm"}
    ]}
  ]
}
